Target: T1, TRPV3 in KU-19-19 cells (Homo sapiens, UniProt Q8NET8)
T1 construct: host or cells: KU-19-19
T1 sequence (Q8NET8 1-790): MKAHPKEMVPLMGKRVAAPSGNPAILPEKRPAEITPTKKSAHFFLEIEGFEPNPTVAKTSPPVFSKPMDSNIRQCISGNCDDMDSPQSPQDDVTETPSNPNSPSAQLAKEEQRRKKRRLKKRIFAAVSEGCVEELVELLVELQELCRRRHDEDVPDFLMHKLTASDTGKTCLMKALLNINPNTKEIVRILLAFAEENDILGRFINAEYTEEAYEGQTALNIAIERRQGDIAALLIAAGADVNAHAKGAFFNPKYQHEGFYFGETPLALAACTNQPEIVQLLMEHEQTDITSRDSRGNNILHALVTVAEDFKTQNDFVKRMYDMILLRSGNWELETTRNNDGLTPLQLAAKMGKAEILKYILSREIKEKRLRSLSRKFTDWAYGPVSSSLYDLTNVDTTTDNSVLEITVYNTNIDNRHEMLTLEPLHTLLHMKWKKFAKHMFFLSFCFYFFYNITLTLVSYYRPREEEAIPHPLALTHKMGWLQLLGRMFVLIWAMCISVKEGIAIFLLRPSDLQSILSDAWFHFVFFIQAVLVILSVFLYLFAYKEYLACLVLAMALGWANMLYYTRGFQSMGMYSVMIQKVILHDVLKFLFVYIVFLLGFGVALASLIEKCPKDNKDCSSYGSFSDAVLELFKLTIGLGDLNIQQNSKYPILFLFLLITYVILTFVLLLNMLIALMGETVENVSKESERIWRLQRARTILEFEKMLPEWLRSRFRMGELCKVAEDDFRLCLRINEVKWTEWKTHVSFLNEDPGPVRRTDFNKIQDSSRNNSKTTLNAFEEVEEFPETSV
Assay: fura-2 Ca2+ assay in KU-19-19 bladder cancer cells
Assay type: cell-based
Details: 50 μM AV3-1
Protocol: All fluorometric Ca^2+ assays were performed in HBS buffer at room temperature. The compounds of the Enamine Diversity Set were diluted in a buffer composed of 150 mM NaCl and 20 mM HEPES and added to the cells at a final concentration of 25 μM (0.5% DMSO). For the primary compound screening and the generation of concentration-response analyses, a robotic liquid handling station (Freedom Evo 150; Tecan) with a built-in custom-made fluorescence plate imager was used. HEKTRPV3 and bladder cancer cell lines were harvested and loaded with 4 μM fluo-4/AM (Invitrogen; Fisher Scientific) in cell culture medium for 30 minutes at 37 °C. […] Fluorescence was excited using a 470-nm light-emitting diode, and emitted light was imaged through a 515-nm–long pass filter with a cooled Zyla 5.5 camera (Andor). Fluorescence was recorded and processed under the control of the μ-Manager 2.0 gamma software (https://micro-manager.org.[28]). After recording baseline fluorescence, compounds were dispensed into the wells via the liquid handling device. […] For further analysis, fluorescence signals were calculated for each well, corrected for background intensities and normalized to the initial signals. […] Fluorescence signals were excited with a fiber-coupled monochromator device (Polychrome V; Till Photonics) at 340, 358, and 380 nm and calibrated as described before.[29] […]

COC(=O)C12CN(Cc3ccccc3)CC1(C(=O)OC)CN(Cc1ccccc1)C2 (stereo not shown) [AV3-1]
[Ca2+]i response in KU-19-19 cells: robust increases in [Ca^2+]i

— publication PMC12881674, “Activation of TRPV3 channels in bladder cancer cells stimulates ATP release” (Molecular Pharmacology, 2025)
